Results from US11564902B2, “Extended duration local anesthetic formulation” (Ventis Pharma, priority 2015, dated 2023).

Key:
[1] = cited from earlier work; for major nerve block duration: reportedly
[2] = with or without epinephrine; cited from earlier work
[3] = Toxic dose of local anesthetics on intravascular absorption; details: inferred from immediate hydrolysis on contact with blood
Description: Short duration local anesthetics are generally used in 1%-2% concentrations. Current applications for short duration local anesthetics are dictated by toxicity; these toxicities vary by drug. […] Intravascular injection or a toxic dosage carries the risk of potential complications such as cardiac arrhythmias or seizures.
Total dose is adjusted to the specific purpose for the local anesthetic administration.

[4] = powdered form, room temperature; cited from earlier work
[5] = contact with blood; cited from earlier work
[6] = cited from earlier work

## CCCN(CC)C(CC)C(=O)Nc1c(C)cccc1C (stereo not shown) [etidocaine]
[1]
  major nerve block duration: three to twelve

## CCCCN1CCCCC1C(=O)Nc1c(C)cccc1C (stereo not shown) [bupivacaine]
[1]
  major nerve block duration: three to twelve
[1]; transversus abdominis plane (TAP) block, 30-35 ml per side, abdominal procedures
  analgesic duration: 12 to 16 h
[2]
  toxic dose: 2.5 mg per kg

## CCCCNc1ccc(C(=O)OCCN(C)C)cc1 [tetracaine]
[3]
  actual toxic dose: higher than 5 mg/kg
[4]
  stability: stable at room temperature
[5]
  metabolism in blood: immediately metabolized in contact with blood
[6]; 0.2% concentration
  motor blockade: minimal motor blockade
  neurotoxicity: not neurotoxic
[6]; applied directly to nerve structures
  toxic concentration: 1%
